This note sets out measurements from the supplement of paper PMC10627819.

What all share (assay): Bliss interaction score (quartile over a dose matrix) (fitness difference); higher = more antagonism (negative = synergy)
One experiment has as its system S. aureus DSM 20231. In outline:
(§1)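 The Bliss score was calculated by subtracting the expected fitness, the product of single-drug values, from the observed fitness. OD595 at entry into stationary phase, over the plate's robust no-drug mean and capped at 1, served as the fitness readout. Single-drug values were inferred from combination data, and scores are summarised by quartiles across technical, biological and donor/recipient replicates.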

The next experiment relates to S. aureus Newman. The essentials: as §1
The next experiment concerns S. pneumoniae D39V. In outline: as §1
The test system of another experiment is B. subtilis 168. In outline:
as §1
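Further: first quartile when negative (synergy) and third quartile when positive (antagonism).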

As for `O=C(O)[C@H]1/C(=C/CO)O[C@@H]2CC(=O)N21` [Clavulanic] + C[n+]1ccc(-c2cc[n+](C)cc2)cc1 [Paraquat], the Bliss interaction score in the experiment on S. aureus DSM 20231 is 0.0962; in the experiment on S. aureus Newman, -0.0709; in the experiment on S. pneumoniae D39V, 0.0522; in the experiment with B. subtilis 168 it was -0.0541.
`O=C(O)[C@H]1/C(=C/CO)O[C@@H]2CC(=O)N21` [Clavulanic] + CCC(C)C1C(=O)NC(=C)C(=O)NC(C(=O)NC(CSCC(C(=O)N1)NC(=O)/C(=C/C)/NC(=O)C(C(C)CC)N)C(=O)NC2C(SCC(NC(=O)CNC(=O)C3CCCN3C2=O)C(=O)NC(CCCCN)C(=O)NC4C(SCC(NC(=O)CNC(=O)C(NC(=O)C(NC(=O)C(NC(=O)CNC4=O)C)CC(C)C)CCSC)C(=O)NC(CC(=O)N)C(=O)NC(CCSC)C(=O)NC(CCCCN)C(=O)NC5C(SCC6C(=O)NC(C(=O)NC(CSC(C(C(=O)N6)NC(=O)C(NC5=O)C)C)C(=O)NC(CO)C(=O)NC(C(C)CC)C(=O)NC(CC7=CN=CN7)C(=O)NC(C(C)C)C(=O)NC(=C)C(=O)NC(CCCCN)C(=O)O)CC8=CN=CN8)C)C)C)CC(C)C [Nisin]: the Bliss interaction score with S. aureus DSM 20231 (main component drawn) is 0.105; in the experiment with S. aureus Newman (main component drawn), 0.255; in the experiment with S. pneumoniae D39V (main component drawn), -0.0543; with B. subtilis 168 (main component drawn) it was -0.0543.
In the case of `Oc1cc(Cl)ccc1Oc1ccc(Cl)cc1Cl` [Triclosan] + CN[C@H](CC(C)C)C(=O)N[C@H]1C(=O)N[C@@H](CC(N)=O)C(=O)N[C@H]2C(=O)N[C@H]3C(=O)N[C@H](C(=O)N[C@H](C(=O)O)c4cc(O)cc(O)c4-c4cc3ccc4O)[C@H](O)c3ccc(c(Cl)c3)Oc3cc2cc(c3O[C@@H]2O[C@H](CO)[C@@H](O)[C@H](O)[C@H]2O[C@H]2C[C@](C)(N)[C@H](O)[C@H](C)O2)Oc2ccc(cc2Cl)[C@H]1O [Vancomycin], the Bliss interaction score was found to be 0.0768 in the experiment with S. aureus DSM 20231, 0.0453 in the experiment on S. aureus Newman, 0.0833 in the experiment with S. pneumoniae D39V and 0.0377 with B. subtilis 168.
For `O=C(O)[C@H]1/C(=C/CO)O[C@@H]2CC(=O)N21` [Clavulanic] + Cn1nnc(-c2ccc(-c3ccc(N4C[C@H](CO)OC4=O)cc3F)cn2)n1 [Tedizolid] the same measures were -0.18, 0.255, -0.0878 and 0.0942.
For `CC[C@H]1OC(=O)[C@H](C)[C@@H](O[C@H]2C[C@@](C)(OC)[C@@H](O)[C@H](C)O2)[C@H](C)[C@@H](O[C@@H]2O[C@H](C)C[C@H](N(C)C)[C@H]2O)[C@](C)(O)C[C@@H](C)CN(C)[C@H](C)[C@@H](O)[C@]1(C)O` [Azithromycin] + CC[C@H]1OC(=O)[C@H](C)C(=O)[C@H](C)[C@@H](O[C@@H]2O[C@H](C)C[C@H](N(C)C)[C@H]2O)[C@](C)(OC)C[C@@H](C)C(=O)[C@H](C)[C@H]2N(CCCCn3cnc(-c4cccnc4)c3)C(=O)O[C@]12C [Telithromycin] the same measures were -0.0311, -0.0389, 0.0272 and 0.0342.
For `CC[C@H]1OC(=O)[C@H](C)[C@@H](O[C@H]2C[C@@](C)(OC)[C@@H](O)[C@H](C)O2)[C@H](C)[C@@H](O[C@@H]2O[C@H](C)C[C@H](N(C)C)[C@H]2O)[C@](C)(O)C[C@@H](C)CN(C)[C@H](C)[C@@H](O)[C@]1(C)O` [Azithromycin] + CO[C@H]1/C=C/O[C@@]2(C)Oc3c(C)c(O)c4c(O)c(c(/C=N/N5CCN(C)CC5)c(O)c4c3C2=O)NC(=O)/C(C)=C\C=C\[C@H](C)[C@H](O)[C@@H](C)[C@@H](O)[C@@H](C)[C@H](OC(C)=O)[C@@H]1C [Rifampicin] the same measures were 0.0531, 0.0263, -0.0821 and 0.0851.
For the compound `O=C(O)[C@H]1/C(=C/CO)O[C@@H]2CC(=O)N21` [Clavulanic] + CCCCCCCCCC(=O)N[C@@H]1[C@H]([C@@H]([C@H](O[C@H]1OC2=C3C=C4C=C2OC5=C(C=C(C=C5)[C@H]([C@H]6C(=O)N[C@@H](C7=C(C(=CC(=C7)O)OC8[C@H]([C@H]([C@@H]([C@H](O8)CO)O)O)O)C9=C(C=CC(=C9)[C@H](C(=O)N6)NC(=O)[C@@H]4NC(=O)[C@@H]1C2=CC(=CC(=C2)OC2=C(C=CC(=C2)[C@H](C(=O)N[C@H](CC2=CC(=C(O3)C=C2)Cl)C(=O)N1)N)O)O)O)C(=O)O)O[C@H]1[C@@H]([C@H]([C@@H]([C@H](O1)CO)O)O)NC(=O)C)Cl)CO)O)O [Teicoplanin], the Bliss interaction score was 0.119 in the experiment on S. aureus DSM 20231 (main component drawn), -0.059 with S. aureus Newman (main component drawn), -0.0601 in the experiment with S. pneumoniae D39V (main component drawn) and -0.178 in the experiment on B. subtilis 168 (main component drawn).
Regarding `Cc1onc(-c2ccccc2)c1C(=O)N[C@@H]1C(=O)N2[C@@H]1SC(C)(C)[C@@H]2C(=O)O` [Oxacillin] + C/C(=C\C(=O)OCCCCCCCCC(=O)O)C[C@@H]1OC[C@H](C[C@@H]2O[C@H]2[C@@H](C)[C@H](C)O)[C@@H](O)[C@H]1O [Pseudomonic acid], the Bliss interaction score in the experiment on S. aureus DSM 20231 is 0.0247; in the experiment with S. aureus Newman it was 0.0232; in the experiment with S. pneumoniae D39V it was 0.158; with B. subtilis 168, 0.0424.
For `CN(N=O)C(=O)N[C@@H](C=O)[C@@H](O)[C@H](O)[C@H](O)CO` [Streptozotocin] + Cc1cc(NS(=O)(=O)c2ccc(N)cc2)no1 [Sulfamethoxazol] the same measures were -0.0487, 0.0639, -0.0217 and -0.0496.
In the case of `O=C(O)[C@H]1/C(=C/CO)O[C@@H]2CC(=O)N21` [Clavulanic] + CN(N=O)C(=O)N[C@@H](C=O)[C@@H](O)[C@H](O)[C@H](O)CO [Streptozotocin], the Bliss interaction score with S. aureus DSM 20231 was -0.0853; in the experiment on S. aureus Newman, 0.197; in the experiment on S. pneumoniae D39V it was 0.059; in the experiment on B. subtilis 168, -0.0541.
For `O=C(O)[C@H]1/C(=C/CO)O[C@@H]2CC(=O)N21` [Clavulanic] + Cc1ncc([N+](=O)[O-])n1CCO [Metronidazole] the same measures were 0.0966, -0.112, 0.0632 and 0.0385.
For `Cc1cc(NS(=O)(=O)c2ccc(N)cc2)no1` [Sulfamethoxazol] + CC[C@H]1OC(=O)[C@H](C)C(=O)[C@H](C)[C@@H](O[C@@H]2O[C@H](C)C[C@H](N(C)C)[C@H]2O)[C@](C)(OC)C[C@@H](C)C(=O)[C@H](C)[C@H]2N(CCCCn3cnc(-c4cccnc4)c3)C(=O)O[C@]12C [Telithromycin] the same measures were 0.034, 0.0359, -0.0611 and -0.0301.
As to `Cc1cc(NS(=O)(=O)c2ccc(N)cc2)no1` [Sulfamethoxazol] + Oc1cc(Cl)ccc1Oc1ccc(Cl)cc1Cl [Triclosan], the Bliss interaction score was 0.0924 with S. aureus DSM 20231, 0.0302 in the experiment on S. aureus Newman, -0.0608 in the experiment with S. pneumoniae D39V and 0.0965 in the experiment on B. subtilis 168.
For `O=C(O)[C@H]1/C(=C/CO)O[C@@H]2CC(=O)N21` [Clavulanic] + COc1cccc2c1C(=O)c1c(O)c3c(c(O)c1C2=O)C[C@@](O)(C(=O)CO)C[C@@H]3O[C@H]1C[C@H](N)[C@H](O)[C@H](C)O1 [Doxorubicin] the same measures were 0.0451, 0.0836, 0.0444 and 0.067.
For `O=C(O)[C@H]1/C(=C/CO)O[C@@H]2CC(=O)N21` [Clavulanic] + CN[C@@H]1[C@H](O)[C@H](NC)[C@H]2O[C@@]3(O)C(=O)C[C@@H](C)O[C@H]3O[C@@H]2[C@H]1O [Spectinomycin] the same measures were 0.137, 0.104, -0.0465 and 0.0479.
For `CC[C@H]1OC(=O)[C@H](C)[C@@H](O[C@H]2C[C@@](C)(OC)[C@@H](O)[C@H](C)O2)[C@H](C)[C@@H](O[C@@H]2O[C@H](C)C[C@H](N(C)C)[C@H]2O)[C@](C)(O)C[C@@H](C)CN(C)[C@H](C)[C@@H](O)[C@]1(C)O` [Azithromycin] + CC[C@H]1OC(=O)[C@H](C)[C@@H](O[C@H]2C[C@@](C)(OC)[C@@H](O)[C@H](C)O2)[C@H](C)[C@@H](O[C@@H]2O[C@H](C)C[C@H](N(C)C)[C@H]2O)[C@](C)(OC)C[C@@H](C)C(=O)[C@H](C)[C@@H](O)[C@]1(C)O [Clarithromycin] the same measures were -0.107, -0.0536, -0.0473 and -0.0578.
With `CC1=C(C(=O)O)N2C(=O)[C@@H](NC(=O)[C@H](N)c3ccccc3)[C@H]2SC1` [Cephalexin] + C[C@@H]1O[C@@H]1P(=O)(O)O [Fosfomycin], the Bliss interaction score was 0.038 in the experiment on S. aureus DSM 20231, 0.134 with S. aureus Newman, -0.111 in the experiment on S. pneumoniae D39V and -0.0491 in the experiment on B. subtilis 168.
For `CC[C@H]1OC(=O)[C@H](C)[C@@H](O[C@H]2C[C@@](C)(OC)[C@@H](O)[C@H](C)O2)[C@H](C)[C@@H](O[C@@H]2O[C@H](C)C[C@H](N(C)C)[C@H]2O)[C@](C)(O)C[C@@H](C)CN(C)[C@H](C)[C@@H](O)[C@]1(C)O` [Azithromycin] + N[C@@H]1CONC1=O [CycloserineD] the same measures were -0.103, 0.0743, 0.135 and 0.0718.
For `CC1=C(C(=O)O)N2C(=O)[C@@H](NC(=O)[C@H](N)c3ccccc3)[C@H]2SC1` [Cephalexin] + CC[C@H]1OC(=O)[C@H](C)C(=O)[C@H](C)[C@@H](O[C@@H]2O[C@H](C)C[C@H](N(C)C)[C@H]2O)[C@](C)(OC)C[C@@H](C)C(=O)[C@H](C)[C@H]2N(CCCCn3cnc(-c4cccnc4)c3)C(=O)O[C@]12C [Telithromycin] the same measures were 0.0639, 0.0476, 0.0359 and 0.0293.
